Experimental data as given in patent US8685987B2, “Substituted [1,2,4]triazolo[1,5-a]pyrimidines and their use as potassium channel modulators” (Ataxion, Inc., priority 2009, dated 2014).

Target: T1, hSK1 channels (Homo sapiens, UniProt Q92952)
T1 construct: expressed in transfected cells; host or cells: HEK293
Experiment: Whole-cell patch-clamp recording of SK current in HEK293 cells expressing hSK1 channels
Format: cell-based
Conditions: SK1 activation
From the text: The compounds of the invention may be tested for their ability to modulate SK channels in vitro. Functional modulation can be determined by measuring the compound-induced change in SK current by the patch clamp technique as described in Strøbk et al.: “Pharmacological characterization of small-conductance Ca^2+-activated K channels expressed in HEK293 cells”, British Journal of Pharmacology (2000) 129, 991-999. From this type of measurements the potency of a given compound can be determined as e.g. Ki or IC50 values for blockers/inhibitors and EC50 values for openers/activators. Similar data can be obtained from other patch clamp configurations and from channels expressed endogenously in various cell lines.
The ionic current through small-conductance Ca^2+-activated K^+ channels (SK channels, subtype 1) is recorded using the whole-cell configuration of the patch-clamp technique in a classic patch-clamp set-up using HEK293 tissue culture cells expressing hSK1 channels as described in e.g. WO 2006/100212.
The SC100 value determined is defined as the Stimulating Concentration required for increasing the baseline current by 100%. The below SC100 values are an indication of the SK1 activating properties of the compounds of the invention.

| Compound | The SC100 (Stimulating Concentration required for increasing the baseline current by 100%) |
| --- | --- |
| CON=CNc1nc2nccc(C(C)Oc3ccc(Br)cc3)n2n1 (stereo not drawn) [Example 1, N-{7-[1-(4-Bromophenoxy)ethyl]-[1,2,4]triazolo[1,5-a]pyrimidin-2-yl}-N′-methoxy-formamidine] | 0.015 µM |
| Cc1cc(Cl)ccc1OC(C)c1ccnc2nc(NC=NOC(C)C)nn12 (stereo not drawn) [Example 6, N-{7-[1-(4-Chloro-2-methylphenoxy)ethyl]-[1,2,4]triazolo[1,5-a]pyrimidin-2-yl}-N′-isopropyloxy-formamidine] | 0.40 µM |
| CON=CNc1nc2nccc(C(C)(C)Oc3ccc(Cl)cc3C)n2n1 [Example 7, N-{7-[1-(4-Chloro-2-methylphenoxy)-1-methyl-ethyl]-[1,2,4]triazolo[1,5-a]pyrimidin-2-yl}-N′-methoxy-formamidine] | 0.60 µM |
| CON=CNc1nc2nccc(C(C)Oc3ccc(Cl)cc3Cl)n2n1 (stereo not drawn) [Example 2, N-{7-[1-(2,4-Dichlorophenoxy)ethyl]-[1,2,4]triazolo[1,5-a]pyrimidin-2-yl}-N′-methoxy-formamidine] | 0.005 µM |
| N-{7-[1-(4-Chloro-2-methylphenoxy)-ethyl]-6-methyl-[1,2,4]triazolo[1,5-a]pyrimidin-2-yl}-N′-hydroxy-formamidine [Example 4] | 0.20 µM |
| CON=CNc1nc2nccc(C(C)Oc3ccc(F)cc3)n2n1 (stereo not drawn) [Example B, N-{7-[1-(4-Fluorophenoxy)ethyl]-[1,2,4]triazolo[1,5-a]pyrimidin-2-yl}-N′-methoxy-formamidine] | 0.075 µM |

Next, values leading:

| The SC100 (Stimulating Concentration required for increasing the baseline current by 100%) | Compound |
| --- | --- |
| 0.008 µM | CON=CNc1nc2nccc(C(C)Oc3ccc(Cl)cc3C)n2n1 (stereo not drawn) [Example A, N-{7-[1-(4-Chloro-2-methylphenoxy)ethyl]-[1,2,4]triazolo[1,5-a]pyrimidin-2-yl}-N′-methoxy-formamidine] |
| 0.003 µM | CCCON=CNc1nc2nccc(C(C)Oc3ccc(Cl)cc3C)n2n1 (stereo not drawn) [Example 5, N-{7-[1-(4-Chloro-2-methylphenoxy)ethyl]-[1,2,4]triazolo[1,5-a]pyrimidin-2-yl}-N′-propyloxy-formamidine] |
| 0.04 µM | CON=CNc1nc2nccc(C(C)Oc3ccc(Cl)cc3)n2n1 (stereo not drawn) [Example 3, N-{7-[1-(4-Chlorophenoxy)ethyl]-[1,2,4]triazolo[1,5-a]pyrimidin-2-yl}-N′-methoxy-formamidine] |
